Counter-ions that a name gives are not always drawn.
Assays:
[1] = target: T1, recombinant human serotonin receptor 5-HT2A (Homo sapiens, UniProt P28223); assay: 5-HT2A antagonist Ca2+ assay in CHO-K1 cells (method A aequorin luminescence / method B FLIPR fluorescence); format: cell-based; details: antagonist mode vs EC80 of reference agonist, method A or B, read-out: 5HT2A IC50
T1 construct: expressed in transfected cells; method B: loaded with Ca2+ dye
How it was run: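 IC50 was obtained by nonlinear regression of percent inhibition of the EC80 agonist Ca2+ response in CHO-K1 cells stably expressing human 5-HT2A. The readout was aequorin luminescence with agonist injected 15 min after compound (A), or Ca2+-dye fluorescence on FLIPR with serotonin as agonist (B).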

[2] = target: human sodium channel NaV1.2 (Homo sapiens, UniProt Q99250); assay: NaV1.2 inhibition, automated patch-clamp (Q-Patch HTX), slow inactivated state (state C); format: cell-based; details: hNaV1.2 CHO cells, slow inactivated state; for inhibition at 10 µM: 10 μM compound, read-out: NaV1.2 (% inh), 10 μM; for IC50: read-out: NaV1.2 IC50; for inhibition at 1 µM: 1 μM compound, read-out: NaV1.2 (% inh), 1 μM
Sequence of human sodium channel NaV1.2 (Q99250 whole entry): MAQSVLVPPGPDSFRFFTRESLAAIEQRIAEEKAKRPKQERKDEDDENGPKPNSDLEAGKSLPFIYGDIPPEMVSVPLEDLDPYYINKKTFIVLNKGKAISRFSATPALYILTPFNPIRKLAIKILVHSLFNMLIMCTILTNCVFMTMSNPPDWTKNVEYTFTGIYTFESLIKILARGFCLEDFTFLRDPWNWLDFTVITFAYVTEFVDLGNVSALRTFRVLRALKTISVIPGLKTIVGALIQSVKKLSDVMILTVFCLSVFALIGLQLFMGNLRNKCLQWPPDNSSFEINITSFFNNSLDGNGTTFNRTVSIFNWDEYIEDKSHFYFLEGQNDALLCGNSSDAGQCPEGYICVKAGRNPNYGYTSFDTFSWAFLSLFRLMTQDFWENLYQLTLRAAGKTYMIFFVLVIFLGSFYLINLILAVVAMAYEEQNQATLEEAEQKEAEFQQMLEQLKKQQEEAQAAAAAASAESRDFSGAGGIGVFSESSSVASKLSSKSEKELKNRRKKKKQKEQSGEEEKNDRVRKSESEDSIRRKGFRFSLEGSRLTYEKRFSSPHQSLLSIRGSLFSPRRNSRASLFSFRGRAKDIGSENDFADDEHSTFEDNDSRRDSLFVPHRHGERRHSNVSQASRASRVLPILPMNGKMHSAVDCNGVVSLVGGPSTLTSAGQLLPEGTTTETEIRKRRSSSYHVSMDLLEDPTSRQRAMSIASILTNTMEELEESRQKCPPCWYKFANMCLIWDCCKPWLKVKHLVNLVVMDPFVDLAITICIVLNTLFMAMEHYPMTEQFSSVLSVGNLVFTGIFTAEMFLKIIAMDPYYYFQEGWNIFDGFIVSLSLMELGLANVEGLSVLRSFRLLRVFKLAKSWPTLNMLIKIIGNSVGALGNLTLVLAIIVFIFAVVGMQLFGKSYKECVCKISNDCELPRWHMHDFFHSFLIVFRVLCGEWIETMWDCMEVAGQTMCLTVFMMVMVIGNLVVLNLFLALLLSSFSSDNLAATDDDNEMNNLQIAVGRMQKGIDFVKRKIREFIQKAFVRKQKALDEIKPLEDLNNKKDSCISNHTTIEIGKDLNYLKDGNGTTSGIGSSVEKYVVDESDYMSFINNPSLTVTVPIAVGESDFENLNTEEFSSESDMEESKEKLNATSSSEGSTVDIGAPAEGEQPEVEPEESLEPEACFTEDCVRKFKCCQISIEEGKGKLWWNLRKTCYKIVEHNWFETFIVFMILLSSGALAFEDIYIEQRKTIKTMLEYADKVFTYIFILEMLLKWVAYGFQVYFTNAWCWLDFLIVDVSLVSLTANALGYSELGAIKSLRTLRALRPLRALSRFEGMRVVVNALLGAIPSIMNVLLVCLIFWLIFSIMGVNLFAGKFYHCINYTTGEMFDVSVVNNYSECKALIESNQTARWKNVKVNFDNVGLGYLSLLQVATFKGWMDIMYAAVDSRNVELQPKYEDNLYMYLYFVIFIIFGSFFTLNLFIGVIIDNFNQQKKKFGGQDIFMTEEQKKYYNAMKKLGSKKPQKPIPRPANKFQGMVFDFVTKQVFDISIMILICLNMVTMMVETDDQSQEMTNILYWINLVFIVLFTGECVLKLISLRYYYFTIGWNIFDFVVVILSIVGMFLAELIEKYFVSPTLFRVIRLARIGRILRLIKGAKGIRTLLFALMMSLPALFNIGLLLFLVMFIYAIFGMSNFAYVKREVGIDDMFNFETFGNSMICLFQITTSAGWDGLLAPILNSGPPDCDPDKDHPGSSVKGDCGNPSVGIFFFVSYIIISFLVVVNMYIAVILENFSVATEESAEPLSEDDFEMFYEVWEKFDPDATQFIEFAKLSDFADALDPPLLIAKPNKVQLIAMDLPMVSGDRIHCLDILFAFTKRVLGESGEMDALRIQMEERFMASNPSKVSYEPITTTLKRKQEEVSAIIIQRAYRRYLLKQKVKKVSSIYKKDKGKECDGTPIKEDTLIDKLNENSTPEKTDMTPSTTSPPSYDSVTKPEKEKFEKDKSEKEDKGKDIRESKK
Text: In vitro method for NaV1.2 inhibition assays: The methods utilized to assess the inhibitory activity of compounds on NaV1.2 were based on the methods described by Liu et al. [Liu Y, Beck E J, & Flores C M (2011): Validation of a patch clamp screening protocol that simultaneously measures compound activity in multiple states of the voltage-gated sodium channel Nav1.2. Assay Drug Development Technology 9, 628-634]. For these electrophysiology assays, a cell line (Chinese Hamster Ovarian K-1 cells (CHO K-1)) engineered to stably express human sodium channel NaV1.2 was purchased from Millipore Corporation (catalog no. CYL3023). The electrophysiology measurements were performed using automated patch-clamp methods on a Q-Patch HTX instrument by scientists at Evotec AG under contract with Sunovion.
The solutions utilized for the Qpatch experiments were similar buffered solutions to those described by Liu et al. [Liu Y, Beck E J, & Flores C M (2011)]. The extracellular solution contained 140 millimolar sodium chloride, 4 millimolar potassium chloride, 2 millimolar calcium chloride, 1 millimolar magnesium chloride, 10 millimolar 4-(2-hydroxyethyl)-1-piperazineethanesulfonic acid (HEPES), and 10 millimolar glucose (pH adjusted to 7.4 with sodium hydroxide). The intracellular solution contained 100 millimolar cesium fluoride, 45 millimolar cesium chloride, 10 millimolar HEPES, 5 millimolar ethylene glycol tetraacetic acid (EGTA), and 5 millimolar glucose (pH adjusted to 7.2 with cesium hydroxide).
The biophysical experiments of Lui et al. [Liu Y, Beck E J, & Flores C M (2011)] were replicated to assess the fast, slow and total inactivation characteristics of the human Nav1.2 channel
Based upon results from studies of the fast, slow and total inactivation characteristics of the human Nav1.2 channel, a voltage protocol involving a sequence of consecutive pulses of current was used to measure channel activity in several states [Liu Y, Beck E J, & Flores C M (2011)]. The monolayer of CHO K-1 cells stably expressing human sodium channel NaV1.2 (hNaV1.2 CHO cells) was maintained in the Qpatch instrument at a potential of −100 millivolts (mV) except when the voltage protocol was being executed. The first pulse in the protocol involved a 100 millisecond depolarization to 0 mV to enable measurement of channel availability in the closed state (state A). The potential was then maintained at −90 mV for 15 milliseconds, followed by a five millisecond period of depolarization to 0 mV to enable measurement of channel availability after partial recovery from fast inactivation (state B). Next, the potential was maintained at −90 mV for 300 milliseconds, followed by ten seconds at −50 mV, 15 milliseconds at −90 mV, and finally another five millisecond period of depolarization to 0 mV to enable measurement of channel availability after additional recovery from fast inactivation and significant entry into the slow inactivated state (state C). Finally, after an additional 300 millisecond period at −90 mV, another five millisecond period of depolarization to 0 mV was employed to enable measurement of channel availability after partial recovery from the slow inactivated state (state D). Measurements of activity at state C were used to assess the activity of the NaV1.2 channel in the slow inactivated state. Comparison of activity after addition of test compounds or reference compounds with activity after addition of vehicle only provided a measure of percent remaining activity from which percent inhibition was calculated. […] A slight modification of this protocol was utilized to provide measurements as a function of compound concentration, which enabled IC50 values to be determined. IC50 values were calculated by non-linear least squares regression of the data (percent inhibition of ion channel NaV1.2 activity in the slow inactivated state) onto equation (1): % inhibition=100%/(1+(IC50/[compound]) equation (1)
J Pharmacol Exp Ther. 2008 July; 326(1):89-99.].

T1 sequence (P28223 whole entry): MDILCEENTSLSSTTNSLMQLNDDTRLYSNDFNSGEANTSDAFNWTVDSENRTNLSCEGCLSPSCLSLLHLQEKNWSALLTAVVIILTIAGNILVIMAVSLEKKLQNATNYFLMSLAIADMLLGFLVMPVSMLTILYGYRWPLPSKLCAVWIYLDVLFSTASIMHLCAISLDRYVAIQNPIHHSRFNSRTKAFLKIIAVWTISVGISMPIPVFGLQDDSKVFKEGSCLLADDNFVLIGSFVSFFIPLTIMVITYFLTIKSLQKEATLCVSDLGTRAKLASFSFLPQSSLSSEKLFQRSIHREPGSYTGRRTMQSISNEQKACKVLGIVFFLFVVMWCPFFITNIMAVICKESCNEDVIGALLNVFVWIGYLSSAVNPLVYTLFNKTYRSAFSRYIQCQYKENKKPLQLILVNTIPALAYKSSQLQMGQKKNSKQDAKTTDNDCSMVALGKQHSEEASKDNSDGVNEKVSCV

Row | Compound | IC50 [1] [nM] | inhibition at 10 µM [2] [%] | IC50 [2] [nM] | inhibition at 1 µM [2] [%]
1 | COCc1cccc(OC2CCN(CCN3CCc4ccccc4C3=O)CC2)c1 [Example 196, 2-(2-(4-(3-(methoxymethyl)phenoxy)piperidin-1-yl)ethyl)-3,4-dihydroisoquinolin-1(2H)-one] | 360 | 67 | – | –
2 | c1ccc(OC2COC3(CCN(CC4CCc5ccccc54)CC3)C2)cc1 (single isomer, unassigned) [Example 380, 8-((2,3-dihydro-1H-inden-1-yl)methyl)-3-phenoxy-1-oxa-8-azaspiro[4.5]decane] | 150 | – | 120 | –
3 | c1ccc(O[C@H]2COC3(CCN(C[C@@H]4CCc5ccccc54)CC3)C2)cc1 (single isomer, unassigned) [Compound 382] | 60 | – | 1210 | –
4 | Fc1ccc(N2CCC3(CCN(CC4CCc5cccnc54)C3)C2)cc1 (stereo not drawn) [Example 337, 2-((6,7-dihydro-5H-cyclopenta[b]pyridin-7-yl)methyl)-7-(4-fluorophenyl)-2,7-diazaspiro[4.4]nonane] | 450 | – | – | -2
5 | Fc1ccc(OC2CCN(CC3CCc4cccc(F)c43)CC2)cc1 (stereo not drawn) [Example 119, 1-((7-fluoro-2,3-dihydro-1H-inden-1-yl)methyl)-4-(4-fluorophenoxy)piperidine] | 20 | – | 180 | –
6 | c1ccc2c(c1)CCC1(CCN(CCC3CCc4ccccc43)CC1)O2 (stereo not drawn) [Example 418, 1′-(2-(2,3-dihydro-1H-inden-1-yl)ethyl)spiro[chromane-2,4′-piperidine]] | 160 | – | 1130 | –
7 | O=C1c2cccnc2CN1CCN1CCC(Oc2ccc(F)cc2)CC1 [Example 186, 6-(2-(4-(4-fluorophenoxy)piperidin-1-yl)ethyl)-6,7-dihydro-5H-pyrrolo[3,4-b]pyridin-5-one] | 10 | – | – | -3
8 | OC(CO[C@@H]1CCc2ccccc21)CN1CC[C@@H](Oc2cccc(F)c2)C1 (stereo partly drawn) [Example 36, 1-(((R)-2,3-dihydro-1H-inden-1-yl)oxy)-3-((R)-3-(3-fluorophenoxy)pyrrolidin-1-yl)propan-2-ol] | 1760 | – | 250 | –
9 | O=C1c2ccccc2CCN1CCN1CCC(Oc2cccc(F)c2)CC1 [Example 193, 2-(2-(4-(3-fluorophenoxy)piperidin-1-yl)ethyl)-3,4-dihydroisoquinolin-1(2H)-one] | 330 | 66 | – | –
10 | O[C@@H](COC1CCCCC1)CN1CC2(CC(c3ccccc3)CO2)C1 (stereo partly drawn) [Example 361, (2R)-1-(cyclohexyloxy)-3-(7-phenyl-5-oxa-2-azaspiro[3.4]octan-2-yl)propan-2-ol] | 20 | – | 2710 | –
11 | Fc1ccc(N2CCC3(CCN(CC4Cc5cccnc5C4)C3)C2)cc1 (stereo not drawn) [Example 339, 2-((6,7-dihydro-5H-cyclopenta[b]pyridin-6-yl)methyl)-7-(4-fluorophenyl)-2,7-diazaspiro[4.4]nonane] | 870 | – | 2270 | –
12 | c1ccc(OC2COC3(C2)CN(CC2CCc4ccccc42)C3)cc1 (single isomer, unassigned) [Compound 362, 2-((2,3-dihydro-1H-inden-1-yl)methyl)-7-phenoxy-5-oxa-2-azaspiro[3.4]octane] | 500 | – | 6370 | –
13 | CN1Cc2ccccc2C(CCN2CCC(Oc3ccc(F)cc3)CC2)C1 (stereo not drawn) [Example 180, 4-(2-(4-(4-fluorophenoxy)piperidin-1-yl)ethyl)-2-methyl-1,2,3,4-tetrahydroisoquinoline] | 320 | – | – | 8
14 | C1=C(c2ccccc2)COC12CN(CC1CCc3ccccc31)C2 (stereo not drawn) [Example 358, 2-((2,3-dihydro-1H-inden-1-yl)methyl)-7-phenyl-5-oxa-2-azaspiro[3.4]oct-7-ene] | 870 | – | > 10000 | –
15 | N#Cc1cccc2c1CCC2CN1CCC(Oc2ccc(F)cc2)CC1 (stereo not drawn) [Example 122, 1-((4-(4-fluorophenoxy)piperidin-1-yl)methyl)-2,3-dihydro-1H-indene-4-carbonitrile] | 90 | – | 110 | –
16 | Cc1ccccc1OC1CCN(CC2Cc3cccnc3C2)CC1 (stereo not drawn) [Example 137, 6-((4-(o-tolyloxy)piperidin-1-yl)methyl)-6,7-dihydro-5H-cyclopenta[b] pyridine] | 40 | – | – | 44
17 | c1ccc(CC2CN(CC3CCc4ccccc43)CCO2)cc1 (stereo not drawn) [Example 251, 2-benzyl-4-((2,3-dihydro-1H-inden-1-yl)methyl)morpholine] | 370 | – | – | 23
18 | c1ccc(OC2CCN(CCOc3ccc4cccnc4c3)CC2)cc1 [Example 232, 7-(2-(4-phenoxypiperidin-1-yl)ethoxy)quinoline] | 220 | 76 | – | –
19 | O[C@H](CO[C@@H]1CCCc2ccccc21)CN1CC[C@@H](Oc2ccc(F)cc2)C1 [Example 52, (S)-1-((R)-3-(4-fluorophenoxy)pyrrolidin-1-yl)-3-(((R)-1,2,3,4-tetrahydronaphthalen-1-yl)oxy)propan-2-ol] | 140 | – | 1690 | –
20 | COc1ccccc1O[C@@H]1CCN(CC2Cc3ccccc3C2)C[C@@H]1C [Example 144, (3S,4R)-1-((2,3-dihydro-1H-inden-2-yl)methyl)-4-(2-methoxyphenoxy)-3-methylpiperidine] | 270 | – | 540 | –
21 | COc1ccc2c(c1)C(CN1CCC[C@@H](Oc3ccc(F)cc3)C1)CC2 (stereo partly drawn) [Example 255, (3R)-3-(4-fluorophenoxy)-1-((6-methoxy-2,3-dihydro-1H-inden-1-yl)methyl)piperidine] | 360 | – | – | 14
22 | COc1ccc2c(c1)C(CN1CCC(Oc3ccncc3)CC1)CC2 (stereo not drawn) [Example 117, 4-((1-((6-methoxy-2,3-dihydro-1H-inden-1-yl)methyl)piperidin-4-yl)oxy)pyridine] | 580 | – | – | 1
23 | Fc1ccc(OC2CCN(CC3CCOc4ccccc43)CC2)cc1 (stereo not drawn) [Example 165, 1-(chroman-4-ylmethyl)-4-(4-fluorophenoxy)piperidine] | 20 | – | 910 | –
24 | O[C@H](COC1CCCCC1)CN1C[C@@H]2C[C@H]1CN2Cc1ccccc1 [Example 309, (S)-1-((1S,4S)-5-benzyl-2,5-diazabicyclo[2.2.1]heptan-2-yl)-3-(cyclohexyloxy)propan-2-ol] | 4810 | 52 | – | –
25 | Fc1ccc(OC2CCN(CC3Cc4cccnc4C3)CC2)cc1 (stereo not drawn) [Example 155, 6-((4-(4-fluorophenoxy)piperidin-1-yl)methyl)-6,7-dihydro-5H-cyclopenta[b]pyridine dihydrochloride] | 40 | – | 1000 | –
26 | Fc1ccc(O[C@H]2CCCN(CC3COCc4ccccc43)C2)cc1 (stereo partly drawn) [Example 261, (3S)-3-(4-fluorophenoxy)-1-(isochroman-4-ylmethyl)piperidine] | 350 | – | – | 22
27 | COc1ccccc1N1CCN(CC(O)COc2cccc3ccccc23)CC1 (stereo not drawn) [Example 92, 1-(4-(2-methoxyphenyl)piperazin-1-yl)-3-(naphthalen-1-yloxy)propan-2-ol] | 230 | – | 10 | –

Source: patent US11186564B2, “Dual NAV1.2/5HT2a inhibitors for treating CNS disorders” (Sunovion Pharmaceuticals Inc., priority 2016, dated 2021)
